From patent publication US20130303509A1, “NAMPT INHIBITORS” (AbbVie Inc., priority 2012, published 2013)

Test system: PC3 cells
Assay: NAMPT Cell Proliferation Assay
Format: cell-based
Settings: Homo sapiens, PC-3, 120 h, 5 days incubation, cell viability by Cell Titer Glo
Procedure, shortened: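 Five-day CellTiter-Glo viability readout in PC3 cells grown in RPMI/10% heat-inactivated FBS. Compounds added after overnight attachment as a 10-fold dilution series, […]. Percent inhibition fitted to sigmoidal dose-response to derive IC50.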

With CCC(C)(C)C(=O)N1CC[C@@H](Oc2ccc(NC(=O)C3CN(c4cccnn4)C3)cc2)C1 [Example 515, N-(4-{[(3R)-1-(2,2-dimethylbutanoyl)pyrrolidin-3-yl]oxy}phenyl)-1-(pyridazin-3-yl)azetidine-3-carboxamide] the IC50 was 0.85 nM.
Molecule O=C(Nc1ccc(O[C@@H]2CCN(C(=O)c3cc(F)cc(F)c3)C2)cc1)C1CN(c2cccnn2)C1 [Example 516, N-(4-{[(3R)-1-(3,5-difluorobenzoyl)pyrrolidin-3-yl]oxy}phenyl)-1-(pyridazin-3-yl)azetidine-3-carboxamide] has an IC50 of 2.26 nM.
O=C(Nc1ccc(O[C@@H]2CCN(C(=O)c3ccc(C(F)(F)F)cc3)C2)cc1)C1CN(c2cccnn2)C1 [Example 517, 1-(pyridazin-3-yl)-N-[4-({(3R)-1-[4-(trifluoromethyl)benzoyl]pyrrolidin-3-yl}oxy)phenyl]azetidine-3-carboxamide] was tested, and the IC50 was 9.21 nM.
O=C(Nc1ccc(O[C@@H]2CCN(C(=O)c3cccc(F)c3)C2)cc1)C1CN(c2cccnn2)C1 [Example 518, N-(4-{[(3R)-1-(3-fluorobenzoyl)pyrrolidin-3-yl]oxy}phenyl)-1-(pyridazin-3-yl)azetidine-3-carboxamide] was tested, and the IC50 was 0.87 nM.
Work on O=C(Nc1ccc(O[C@@H]2CCN(C(=O)c3ccc(OC(F)(F)F)cc3)C2)cc1)C1CN(c2cccnn2)C1 [Example 519, 1-(pyridazin-3-yl)-N-[4-({(3R)-1-[4-(trifluoromethoxy)benzoyl]pyrrolidin-3-yl}oxy)phenyl]azetidine-3-carboxamide] yielded an IC50 of 3.21 nM.
Molecule CC(C)CC(=O)N1CC[C@@H](Oc2ccc(NC(=O)C3CN(c4cccnn4)C3)cc2)C1 [Example 520, N-(4-{[(3R)-1-(3-methylbutanoyl)pyrrolidin-3-yl]oxy}phenyl)-1-(pyridazin-3-yl)azetidine-3-carboxamide] has an IC50 of 0.47 nM.
For O=C(Nc1ccc(O[C@@H]2CCN(C(=O)CC(F)(F)F)C2)cc1)C1CN(c2cccnn2)C1 [Example 521, 1-(pyridazin-3-yl)-N-(4-{[(3R)-1-(3,3,3-trifluoropropanoyl)pyrrolidin-3-yl]oxy}phenyl)azetidine-3-carboxamide], the IC50 was 4.72 nM.
With O=C(Nc1ccc(O[C@@H]2CCN(C(=O)C(F)(F)c3ccccc3)C2)cc1)C1CN(c2cccnn2)C1 [Example 522, N-[4-({(3R)-1-[difluoro(phenyl)acetyl]pyrrolidin-3-yl}oxy)phenyl]-1-(pyridazin-3-yl)azetidine-3-carboxamide] the IC50 was 0.78 nM.
Molecule CC(C)(C)C(=O)N1CC[C@@H](Oc2ccc(NC(=O)C3CN(c4cccnn4)C3)cc2)C1 [Example 523, N-(4-{[(3R)-1-(2,2-dimethylpropanoyl)pyrrolidin-3-yl]oxy}phenyl)-1-(pyridazin-3-yl)azetidine-3-carboxamide] has an IC50 of 0.99 nM.
Molecule O=C(Nc1ccc(O[C@@H]2CCN(C(=O)C3CCC(F)(F)CC3)C2)cc1)C1CN(c2cccnn2)C1 [Example 524, N-[4-({(3R)-1-[(4,4-difluorocyclohexyl)carbonyl]pyrrolidin-3-yl}oxy)phenyl]-1-(pyridazin-3-yl)azetidine-3-carboxamide] has an IC50 of 5.73 nM.
With O=C(Nc1ccc(C2CCN(C(=O)c3ccccc3Cl)CC2)cc1)C1CN(c2ccnnc2)C1 [Example 525, N-{4-[1-(2-chlorobenzoyl)piperidin-4-yl]phenyl}-1-(pyridazin-4-yl)azetidine-3-carboxamide] the IC50 was 0.93 nM.
O=C(Nc1ccc(C2CCN(C(=O)c3nccs3)CC2)cc1)C1CN(c2ccnnc2)C1 [Example 526, 1-(pyridazin-4-yl)-N-{4-[1-(1,3-thiazol-2-ylcarbonyl)piperidin-4-yl]phenyl}azetidine-3-carboxamide] was tested, and the IC50 was 0.94 nM.
O=C(Nc1ccc(C2CCN(C(=O)CC3CC3)CC2)cc1)C1CN(c2ccnnc2)C1 [Example 527, N-{4-[1-(cyclopropylacetyl)piperidin-4-yl]phenyl}-1-(pyridazin-4-yl)azetidine-3-carboxamide] gave an IC50 of 7.78 nM.
Molecule CC(C)C(=O)N1CCC(c2ccc(NC(=O)C3CN(c4ccnnc4)C3)cc2)CC1 [Example 528, N-{4-[1-(2-methylpropanoyl)piperidin-4-yl]phenyl}-1-(pyridazin-4-yl)azetidine-3-carboxamide] has an IC50 of 19.2 nM.
With O=C(Nc1ccc(C2CCN(C(=O)c3ccc(F)cc3)CC2)cc1)C1CN(c2ccnnc2)C1 [Example 529, N-{4-[1-(4-fluorobenzoyl)piperidin-4-yl]phenyl}-1-(pyridazin-4-yl)azetidine-3-carboxamide] the IC50 was 9.33 nM.
With O=C(Nc1ccc(C2CCN(C(=O)c3ccsc3)CC2)cc1)C1CN(c2ccnnc2)C1 [Example 530, 1-(pyridazin-4-yl)-N-{4-[1-(thiophen-3-ylcarbonyl)piperidin-4-yl]phenyl}azetidine-3-carboxamide] the IC50 was 2.02 nM.
In the case of O=C(Nc1ccc(C2CCN(C(=O)Cc3ccc(F)cc3)CC2)cc1)C1CN(c2ccnnc2)C1 [Example 531, N-(4-{1-[(4-fluorophenyl)acetyl]piperidin-4-yl}phenyl)-1-(pyridazin-4-yl)azetidine-3-carboxamide], the IC50 is reported as 17.6 nM.
For O=C(Nc1ccc(C2CCN(C(=O)Cc3cc(F)cc(F)c3)CC2)cc1)C1CN(c2ccnnc2)C1 [Example 532, N-(4-{1-[(3,5-difluorophenyl)acetyl]piperidin-4-yl}phenyl)-1-(pyridazin-4-yl)azetidine-3-carboxamide], the IC50 was 7.24 nM.
O=C(Nc1ccc(C2CCN(C(=O)c3ccc(F)c(F)c3)CC2)cc1)C1CN(c2ccnnc2)C1 [Example 533, N-{4-[1-(3,4-difluorobenzoyl)piperidin-4-yl]phenyl}-1-(pyridazin-4-yl)azetidine-3-carboxamide] was tested, and the IC50 was 24.6 nM.
With O=C(Nc1ccc(C2CCN(C(=O)Cc3cccc(F)c3)CC2)cc1)C1CN(c2ccnnc2)C1 [Example 534, N-(4-{1-[(3-fluorophenyl)acetyl]piperidin-4-yl}phenyl)-1-(pyridazin-4-yl)azetidine-3-carboxamide] the IC50 was 5.46 nM.
O=C(Nc1ccc(C2CCN(C(=O)c3cccc(C(F)(F)F)c3)CC2)cc1)C1CN(c2ccnnc2)C1 [Example 535, 1-(pyridazin-4-yl)-N-(4-{1-[3-(trifluoromethyl)benzoyl]piperidin-4-yl}phenyl)azetidine-3-carboxamide] gave an IC50 of 9.39 nM.
O=C(Nc1ccc(C2CCN(C(=O)Cc3ccc(F)cc3F)CC2)cc1)C1CN(c2ccnnc2)C1 [Example 536, N-(4-{1-[(2,4-difluorophenyl)acetyl]piperidin-4-yl}phenyl)-1-(pyridazin-4-yl)azetidine-3-carboxamide] gave an IC50 of 6.14 nM.
In the case of O=C(Nc1ccc(C2CCN(C(=O)c3cscn3)CC2)cc1)C1CN(c2ccnnc2)C1 [Example 537, 1-(pyridazin-4-yl)-N-{4-[1-(1,3-thiazol-4-ylcarbonyl)piperidin-4-yl]phenyl}azetidine-3-carboxamide], the IC50 is reported as 3.3 nM.
In the case of O=C(Nc1ccc(C2CCN(C(=O)C3CCCO3)CC2)cc1)C1CN(c2ccnnc2)C1 (centres unmarked) [Example 538, 1-(pyridazin-4-yl)-N-{4-[1-(tetrahydrofuran-2-ylcarbonyl)piperidin-4-yl]phenyl}azetidine-3-carboxamide], the IC50 is reported as 13.7 nM.
Work on Cc1ccc(C(=O)N2CCC(c3ccc(NC(=O)C4CN(c5ccnnc5)C4)cc3)CC2)s1 [Example 539, N-(4-{1-[(5-methylthiophen-2-yl)carbonyl]piperidin-4-yl}phenyl)-1-(pyridazin-4-yl)azetidine-3-carboxamide] yielded an IC50 of 2.57 nM.
With O=C(Nc1ccc(C2CCN(C(=O)Cc3ccccc3F)CC2)cc1)C1CN(c2ccnnc2)C1 [Example 540, N-(4-{1-[(2-fluorophenyl)acetyl]piperidin-4-yl}phenyl)-1-(pyridazin-4-yl)azetidine-3-carboxamide] the IC50 was 3.91 nM.
Molecule O=C(Nc1ccc(C2CCN(C(=O)C3CC3)CC2)cc1)C1CN(c2ccnnc2)C1 [Example 541, N-{4-[1-(cyclopropylcarbonyl)piperidin-4-yl]phenyl}-1-(pyridazin-4-yl)azetidine-3-carboxamide] has an IC50 of 4.2 nM.
Molecule O=C(Nc1ccc(C2CCN(C(=O)C3CCOC3)CC2)cc1)C1CN(c2ccnnc2)C1 (centres unmarked) [Example 542, 1-(pyridazin-4-yl)-N-{4-[1-(tetrahydrofuran-3-ylcarbonyl)piperidin-4-yl]phenyl}azetidine-3-carboxamide] has an IC50 of 67.6 nM.
O=C(Nc1ccc(C2CCN(C(=O)c3ccccn3)CC2)cc1)C1CN(c2ccnnc2)C1 [Example 543, 1-(pyridazin-4-yl)-N-{4-[1-(pyridin-2-ylcarbonyl)piperidin-4-yl]phenyl}azetidine-3-carboxamide] was tested, and the IC50 was 7.7 nM.
O=C(Nc1ccc(C2CCN(C(=O)c3cccc(Cl)c3)CC2)cc1)C1CN(c2ccnnc2)C1 [Example 544, N-{4-[1-(3-chlorobenzoyl)piperidin-4-yl]phenyl}-1-(pyridazin-4-yl)azetidine-3-carboxamide] showed an IC50 of 7.17 nM.
Work on O=C(Nc1ccc(C2CCN(C(=O)c3ccc(Cl)cc3)CC2)cc1)C1CN(c2ccnnc2)C1 [Example 545, N-{4-[1-(4-chlorobenzoyl)piperidin-4-yl]phenyl}-1-(pyridazin-4-yl)azetidine-3-carboxamide] yielded an IC50 of 15.2 nM.
With CC(C)(C(=O)N1CCC(c2ccc(NC(=O)C3CN(c4ccnnc4)C3)cc2)CC1)c1ccccc1 [Example 546, N-{4-[1-(2-methyl-2-phenylpropanoyl)piperidin-4-yl]phenyl}-1-(pyridazin-4-yl)azetidine-3-carboxamide] the IC50 was 1.41 nM.
For O=C(Nc1ccc(C2CCN(C(=O)c3ccc(F)cc3F)CC2)cc1)C1CN(c2ccnnc2)C1 [Example 547, N-{4-[1-(2,4-difluorobenzoyl)piperidin-4-yl]phenyl}-1-(pyridazin-4-yl)azetidine-3-carboxamide], the IC50 was 3.02 nM.
Work on COCC(=O)N1CCC(c2ccc(NC(=O)C3CN(c4ccnnc4)C3)cc2)CC1 [Example 548, N-{4-[1-(methoxyacetyl)piperidin-4-yl]phenyl}-1-(pyridazin-4-yl)azetidine-3-carboxamide] yielded an IC50 of 64.9 nM.
O=C(Nc1ccc(C2CCN(C(=O)c3cccs3)CC2)cc1)C1CN(c2ccnnc2)C1 [Example 549, 1-(pyridazin-4-yl)-N-{4-[1-(thiophen-2-ylcarbonyl)piperidin-4-yl]phenyl}azetidine-3-carboxamide] gave an IC50 of 0.67 nM.
